# Data as given in US8003343B2, “Method for determining diamine oxidase” (Sciotec Diagnostic Technologies GmbH, priority 2005, dated 2011).
# Biological target: diamine oxidase (DAO; EC 1.4.3.6) (Homo sapiens, UniProt P19801)
# Assay: biochemical
# Protocol: The sample is contacted and mixed with the given amount of diamine preferably dissolved in an aqueous solution. It is, of course, also possible to directly add a given amount of diamine to a defined amount of sample (e.g. in crystal form). […] After having incubated this mixture for a fixed period during which the diamine contained in the aqueous solution is degraded in the presence of DAO as a function of the amount of the latter, the diamine remaining in the mixture is derivatized by 95%, preferably 99%, even more preferred 99.5%, in particular 100%. The incubation conditions must be selected such that the DAO possibly present in the sample is able to convert the present diamine. DAO is an enzyme which converts diamine substrates such as, e.g. histamine, at such reaction rates that the incubation time will preferably last for at least 30 minutes.
# FIG. 3 depicts the relative enzymatic activity of a defined amount of DAO in a sample as a function of the amount of histamine used.
# Sequence of diamine oxidase (DAO; EC 1.4.3.6) (P19801 20-751, species assumed): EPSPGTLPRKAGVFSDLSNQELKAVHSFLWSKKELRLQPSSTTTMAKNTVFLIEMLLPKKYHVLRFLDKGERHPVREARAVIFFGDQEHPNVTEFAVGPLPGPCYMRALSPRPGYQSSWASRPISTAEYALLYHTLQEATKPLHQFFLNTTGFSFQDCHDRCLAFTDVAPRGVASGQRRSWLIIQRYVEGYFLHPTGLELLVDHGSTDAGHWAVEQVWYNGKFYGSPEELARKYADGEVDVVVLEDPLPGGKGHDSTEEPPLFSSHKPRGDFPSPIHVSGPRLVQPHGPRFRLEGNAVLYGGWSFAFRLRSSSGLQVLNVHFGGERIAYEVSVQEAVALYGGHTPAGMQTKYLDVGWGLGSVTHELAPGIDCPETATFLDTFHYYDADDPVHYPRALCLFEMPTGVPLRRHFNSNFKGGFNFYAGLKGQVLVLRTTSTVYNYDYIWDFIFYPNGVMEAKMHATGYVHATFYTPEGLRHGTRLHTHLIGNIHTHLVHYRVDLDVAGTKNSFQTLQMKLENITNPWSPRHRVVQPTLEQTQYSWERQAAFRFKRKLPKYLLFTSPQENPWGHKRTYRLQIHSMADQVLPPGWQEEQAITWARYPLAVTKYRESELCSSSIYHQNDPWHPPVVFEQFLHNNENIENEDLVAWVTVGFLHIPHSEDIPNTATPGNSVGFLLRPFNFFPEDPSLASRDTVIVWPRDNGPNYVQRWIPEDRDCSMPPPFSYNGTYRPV
smiles,measurement,setting,value
"NCCc1c[nH]cn1 [histamine, 1H-imidazole-4-ethylamine]",inhibition of DAO,addition of at least 100 μM histamine,at least partially inhibited
same,inhibition at 500 µM,read-out: inhibition of DAO,~60%
